Results on three molecules are retold here after patent US20250361490A1, “COMPOSITION AND METHOD FOR CRYOPRESERVATION OF MITOCHONDRIA” (cellvie AG, priority 2022, published 2025).

Structures are written as SMILES.

The subject of this experiment is isolated mitochondria from human cardiac fibroblast (HCF) cells. Nature of the experiment: Mitochondrial membrane potential assay (MitoTracker Red CMXRos / MitoTracker Green FM staining). In kind it is cell-based. The following applies: single cryoprotectant at 5%, 10%, 20% (v/v) in trehalose-based isolation buffer; frozen on dry ice, thawed 37° C.; normalized to non-frozen control.
Description: Procedure: Isolated mitochondria in the form of pellets were resuspended in two different isolation buffers containing respectively either 300 mM sucrose or 300 mM trehalose and then frozen in 1.5 ml Eppendorf tubes by placing them either in liquid nitrogen for approximately 1 minute or on dry ice for approximately 3 minutes. For thawing, the tubes were placed in a 37° C. water bath until the entire sample was thawed, and then immediately transferred on ice.
To assess the mitochondrial membrane potential, the isolated mitochondria were resuspended either in the sucrose-containing isolation buffer or in the trehalose-containing isolation buffer at 1 mg/ml, and 15 μg of mitochondrial suspension were used for each sample. Both non-frozen mitochondria and mitochondria frozen and thawed according to procedure described under section 2.2 were stored on ice until use, e.g., stored for a period of 5 minutes to maximum 60 minutes, preferably for a few minutes (e.g., for a period of maximum 15 minutes, such as 5 minutes or 10 minutes). For Mitotracker Red CMXRos/Mitotracker Green FM staining, a labelling solution was prepared, by adding 200 nM MitoTracker Red CMxROS and 200 nM MitoTracker Green FM (Thermo Fisher) in the isolation buffer. The isolated mitochondria were then suspended in 1 ml of the labelling solution, vortexed and incubated for 15 minutes in a 37° C. incubator. Mitochondria were sedimented by centrifugation at 9500 g for 5 minutes at 4° C., washed once with the respective isolation buffer, and resuspended in the isolation buffer at a concentration of 1 mg/ml. […] MitoTracker Red or MitoTracker Green signal was quantified using Keyence BZ-800 Analyzer software, integrated brightness per image was taken for calculations and averaged between images taken from one sample.
The effect of cryoprotectant addition on maintaining integrity of the inner mitochondrial membrane was studied using MitoTracker staining assay, as described in Example 2.3. […] Alle frozen samples were thawed in a 37° C. water bath and analyzed by MitoTracker staining.
Consider `O=C(O)[C@@H]1CCCN1` [CRYO6, L-Proline], for which the “integrity of the inner mitochondrial membrane (MitoTracker Red staining)” value (shortened to “integrity”) is recorded as “preserve mitochondria inner membrane integrity”. Consider `OC[C@H]1O[C@@](CO)(O[C@H]2O[C@H](CO)[C@@H](O)[C@H](O)[C@H]2O)[C@@H](O)[C@@H]1O` [CRYO25, D-(+)-Sucrose], for which the “integrity” value is on record as “preserve mitochondria inner membrane integrity”. For the molecule `O.O=C[C@H](O)[C@@H](O)[C@H](O)[C@H](O)CO` [CRYO33, D-(+)-Glucose monohydrate], the “integrity” value is given as “preserve mitochondria inner membrane integrity”.
